According to the kinase profiling compilation of Christmann-Franck et al. (2016):

Experiments:
[1] = test system: ABL1 (human), P00519 [F317I]; experiment: KINOMEscan competition binding; conditions: compound 10.0 µM
FES (human) = FES (human) (UniProt P07332); experiment: Z-Lyte, FRET
HIPK3 (human) = HIPK3 (human) (UniProt Q9H422); experiment: KINOMEscan competition binding; conditions: compound 10.0 µM
[2] = test system: PIK3CA (human), P42336 [C420R]; experiment: KINOMEscan competition binding; conditions: compound 10.0 µM
NEK3 (human) = NEK3 (human) (UniProt P51956); experiment: KINOMEscan competition binding; conditions: compound 10.0 µM
DYRK1A (human) = DYRK1A (human) (UniProt Q13627); experiment: KINOMEscan competition binding; conditions: compound 10.0 µM
CDKL1 (human) = CDKL1 (human) (UniProt Q00532); experiment: KINOMEscan competition binding; conditions: compound 10.0 µM
PRKCI (human) = PRKCI (human) (UniProt P41743); experiment: KINOMEscan competition binding; conditions: compound 10.0 µM
CASK (human) = CASK (human) (UniProt O14936); experiment: KINOMEscan competition binding; conditions: compound 10.0 µM
EPHB6 (human) = EPHB6 (human) (UniProt O15197); experiment: KINOMEscan competition binding; conditions: compound 10.0 µM
HUNK (human) = HUNK (human) (UniProt P57058); experiment: KINOMEscan competition binding; conditions: compound 10.0 µM
MAP2K7 (human) = MAP2K7 (human) (UniProt O14733); experiment: KINOMEscan competition binding; conditions: compound 10.0 µM
MAP3K2 (human) = MAP3K2 (human) (UniProt Q9Y2U5); experiment: KINOMEscan competition binding; conditions: compound 10.0 µM
NIM1 (human) = NIM1 (human) (UniProt Q8IY84); experiment: KINOMEscan competition binding; conditions: compound 10.0 µM
IRAK4 (human) = IRAK4 (human) (UniProt Q9NWZ3); experiment: KINOMEscan competition binding; conditions: compound 10.0 µM
TBK1 (human) = TBK1 (human) (UniProt Q9UHD2); experiment: KINOMEscan competition binding; conditions: compound 10.0 µM
MATK (human) = MATK (human) (UniProt P42679); experiment: KINOMEscan competition binding; conditions: compound 10.0 µM
PIP5K1C (human) = PIP5K1C (human) (UniProt O60331); experiment: KINOMEscan competition binding; conditions: compound 10.0 µM
GRK1 (human) = GRK1 (human) (UniProt Q15835); experiment: KINOMEscan competition binding; conditions: compound 10.0 µM
[3] = test system: PIK3CA (human), P42336 [I800L]; experiment: KINOMEscan competition binding; conditions: compound 10.0 µM
[4] = test system: KIT (human), P10721 [L576P]; experiment: KINOMEscan competition binding; conditions: compound 10.0 µM
GRK4 (human) = GRK4 (human) (UniProt P32298); experiment: KINOMEscan competition binding; conditions: compound 10.0 µM
[5] = test system: KIT (human), P10721 [D816H]; experiment: KINOMEscan competition binding; conditions: compound 10.0 µM
TRPM6 (human) = TRPM6 (human) (UniProt Q9BX84); experiment: KINOMEscan competition binding; conditions: compound 10.0 µM
CPK1 (P.falciparum) = experiment: KINOMEscan competition binding; conditions: compound 10.0 µM
PKN3 (M.tuberculosis) = PKN3 (M.tuberculosis) (UniProt Q6P5Z2); experiment: KINOMEscan competition binding; conditions: compound 10.0 µM
MAP2K5 (human) = MAP2K5 (human) (UniProt Q13163); experiment: KINOMEscan competition binding; conditions: compound 10.0 µM
GRK7 (human) = GRK7 (human) (UniProt Q8WTQ7); experiment: KINOMEscan competition binding; conditions: compound 10.0 µM
SIK3 (human) = SIK3 (human) (UniProt Q9Y2K2); experiment: KINOMEscan competition binding; conditions: compound 10.0 µM
PRPF4B (human) = PRPF4B (human) (UniProt Q13523); experiment: KINOMEscan competition binding; conditions: compound 10.0 µM
SNRK (human) = SNRK (human) (UniProt Q9NRH2); experiment: KINOMEscan competition binding; conditions: compound 10.0 µM
NEK11 (human) = NEK11 (human) (UniProt Q8NG66); experiment: KINOMEscan competition binding; conditions: compound 10.0 µM
[6] = test system: KIT (human), P10721 [A829P]; experiment: KINOMEscan competition binding; conditions: compound 10.0 µM
[7] = test system: PIK3CA (human), P42336 [E542K]; experiment: KINOMEscan competition binding; conditions: compound 10.0 µM
CSNK1A1L (human) = CSNK1A1L (human) (UniProt Q8N752); experiment: KINOMEscan competition binding; conditions: compound 10.0 µM
[8] = test system: PIK3CA (human), P42336 [M1043I]; experiment: KINOMEscan competition binding; conditions: compound 10.0 µM
CDK4 CCND3 (human) = CDK4 CCND3 (human) (UniProt P11802+P30281); experiment: KINOMEscan competition binding; conditions: compound 10.0 µM
[9] = test system: PIK3CA (human), P42336 [E545A]; experiment: KINOMEscan competition binding; conditions: compound 10.0 µM
CDKL5 (human) = CDKL5 (human) (UniProt O76039); experiment: KINOMEscan competition binding; conditions: compound 10.0 µM
MARK2 (human) = MARK2 (human) (UniProt Q7KZI7); experiment: KINOMEscan competition binding; conditions: compound 10.0 µM
DSTYK (human) = DSTYK (human) (UniProt Q6XUX3); experiment: KINOMEscan competition binding; conditions: compound 10.0 µM
[10] = test system: LRRK2 (human), Q5S007 [G2019S]; experiment: KINOMEscan competition binding; conditions: compound 10.0 µM

Chain of FES (human) (P07332 whole entry, looked up): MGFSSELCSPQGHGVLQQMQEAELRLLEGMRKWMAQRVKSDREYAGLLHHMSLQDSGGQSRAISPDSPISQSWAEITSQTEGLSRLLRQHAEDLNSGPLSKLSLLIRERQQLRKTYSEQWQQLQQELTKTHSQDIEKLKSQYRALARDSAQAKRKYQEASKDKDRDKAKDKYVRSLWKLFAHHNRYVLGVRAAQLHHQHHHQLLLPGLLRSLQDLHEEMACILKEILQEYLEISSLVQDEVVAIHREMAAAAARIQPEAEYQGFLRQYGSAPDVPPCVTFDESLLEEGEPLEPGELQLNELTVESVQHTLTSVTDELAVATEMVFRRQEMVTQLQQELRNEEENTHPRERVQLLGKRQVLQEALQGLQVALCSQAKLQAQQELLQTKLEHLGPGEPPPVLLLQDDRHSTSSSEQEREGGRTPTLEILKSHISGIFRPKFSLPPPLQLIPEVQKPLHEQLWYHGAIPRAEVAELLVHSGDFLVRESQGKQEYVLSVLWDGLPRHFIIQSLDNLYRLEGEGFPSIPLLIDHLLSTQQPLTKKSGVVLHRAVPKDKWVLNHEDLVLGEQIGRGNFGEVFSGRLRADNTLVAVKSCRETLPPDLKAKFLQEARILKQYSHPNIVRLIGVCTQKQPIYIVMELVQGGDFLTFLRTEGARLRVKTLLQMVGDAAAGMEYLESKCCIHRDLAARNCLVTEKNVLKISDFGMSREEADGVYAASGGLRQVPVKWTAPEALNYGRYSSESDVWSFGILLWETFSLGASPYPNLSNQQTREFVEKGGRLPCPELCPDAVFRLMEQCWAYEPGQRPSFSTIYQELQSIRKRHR
Chain of MAP2K5 (human) (Q13163 whole entry, looked up): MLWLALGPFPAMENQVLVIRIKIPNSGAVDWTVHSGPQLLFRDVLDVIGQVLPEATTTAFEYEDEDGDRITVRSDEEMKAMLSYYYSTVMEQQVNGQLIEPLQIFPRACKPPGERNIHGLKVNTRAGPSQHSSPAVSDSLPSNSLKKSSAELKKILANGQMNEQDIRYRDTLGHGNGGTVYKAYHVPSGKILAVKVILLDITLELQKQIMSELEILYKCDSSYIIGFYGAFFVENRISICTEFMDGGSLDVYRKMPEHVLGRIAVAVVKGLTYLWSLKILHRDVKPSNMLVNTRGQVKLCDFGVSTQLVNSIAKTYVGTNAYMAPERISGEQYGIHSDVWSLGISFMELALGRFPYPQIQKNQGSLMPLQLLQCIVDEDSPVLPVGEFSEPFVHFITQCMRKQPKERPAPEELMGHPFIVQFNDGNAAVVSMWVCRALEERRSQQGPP
Chain of TBK1 (human) (Q9UHD2 whole entry, looked up): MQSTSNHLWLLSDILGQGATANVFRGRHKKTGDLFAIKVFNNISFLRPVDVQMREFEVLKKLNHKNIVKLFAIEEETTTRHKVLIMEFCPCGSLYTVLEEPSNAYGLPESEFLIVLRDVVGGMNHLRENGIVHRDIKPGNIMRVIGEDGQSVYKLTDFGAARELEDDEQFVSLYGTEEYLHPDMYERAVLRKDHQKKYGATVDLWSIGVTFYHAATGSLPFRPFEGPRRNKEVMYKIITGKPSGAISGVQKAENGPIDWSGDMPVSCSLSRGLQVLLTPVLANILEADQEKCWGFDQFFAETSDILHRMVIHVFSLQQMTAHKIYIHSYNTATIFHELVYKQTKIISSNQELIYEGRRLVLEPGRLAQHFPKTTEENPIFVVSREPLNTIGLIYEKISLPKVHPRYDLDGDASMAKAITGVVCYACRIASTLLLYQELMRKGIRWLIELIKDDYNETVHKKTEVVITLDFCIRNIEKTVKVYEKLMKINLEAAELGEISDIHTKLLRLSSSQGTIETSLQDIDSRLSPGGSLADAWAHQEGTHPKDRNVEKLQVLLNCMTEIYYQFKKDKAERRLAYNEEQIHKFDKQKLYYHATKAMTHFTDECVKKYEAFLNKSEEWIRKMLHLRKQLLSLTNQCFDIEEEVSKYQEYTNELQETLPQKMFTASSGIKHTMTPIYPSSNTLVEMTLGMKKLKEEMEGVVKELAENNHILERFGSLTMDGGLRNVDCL
Chain of PIK3CA (human), P42336 [E542K] (P42336 whole entry E542K, looked up): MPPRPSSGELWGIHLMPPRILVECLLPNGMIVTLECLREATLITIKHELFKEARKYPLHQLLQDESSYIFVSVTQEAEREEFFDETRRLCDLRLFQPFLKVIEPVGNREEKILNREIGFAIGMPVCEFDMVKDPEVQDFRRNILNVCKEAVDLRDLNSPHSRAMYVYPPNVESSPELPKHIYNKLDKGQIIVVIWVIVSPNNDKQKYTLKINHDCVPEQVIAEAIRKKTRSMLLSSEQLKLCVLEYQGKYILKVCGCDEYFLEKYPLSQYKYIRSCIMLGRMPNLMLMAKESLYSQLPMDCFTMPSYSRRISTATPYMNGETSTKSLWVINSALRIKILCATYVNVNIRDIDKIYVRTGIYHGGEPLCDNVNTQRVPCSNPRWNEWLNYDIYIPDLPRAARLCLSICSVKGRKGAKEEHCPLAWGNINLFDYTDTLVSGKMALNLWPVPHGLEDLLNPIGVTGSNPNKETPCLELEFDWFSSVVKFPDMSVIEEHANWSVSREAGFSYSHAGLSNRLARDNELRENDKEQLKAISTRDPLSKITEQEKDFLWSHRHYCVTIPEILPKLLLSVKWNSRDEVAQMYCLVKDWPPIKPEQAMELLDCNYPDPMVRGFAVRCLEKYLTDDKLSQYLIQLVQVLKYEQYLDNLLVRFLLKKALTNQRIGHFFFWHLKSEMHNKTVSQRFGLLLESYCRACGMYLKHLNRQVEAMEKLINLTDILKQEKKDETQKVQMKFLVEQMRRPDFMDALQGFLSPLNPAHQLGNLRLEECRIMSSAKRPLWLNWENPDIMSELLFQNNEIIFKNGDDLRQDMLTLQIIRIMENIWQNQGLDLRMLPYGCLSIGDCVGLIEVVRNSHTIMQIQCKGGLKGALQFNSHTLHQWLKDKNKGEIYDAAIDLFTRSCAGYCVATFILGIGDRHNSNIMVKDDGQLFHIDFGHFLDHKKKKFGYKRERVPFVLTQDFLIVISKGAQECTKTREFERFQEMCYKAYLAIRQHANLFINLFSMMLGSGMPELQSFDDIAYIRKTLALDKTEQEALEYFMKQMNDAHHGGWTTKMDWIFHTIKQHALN
Chain of DSTYK (human) (Q6XUX3 whole entry, looked up): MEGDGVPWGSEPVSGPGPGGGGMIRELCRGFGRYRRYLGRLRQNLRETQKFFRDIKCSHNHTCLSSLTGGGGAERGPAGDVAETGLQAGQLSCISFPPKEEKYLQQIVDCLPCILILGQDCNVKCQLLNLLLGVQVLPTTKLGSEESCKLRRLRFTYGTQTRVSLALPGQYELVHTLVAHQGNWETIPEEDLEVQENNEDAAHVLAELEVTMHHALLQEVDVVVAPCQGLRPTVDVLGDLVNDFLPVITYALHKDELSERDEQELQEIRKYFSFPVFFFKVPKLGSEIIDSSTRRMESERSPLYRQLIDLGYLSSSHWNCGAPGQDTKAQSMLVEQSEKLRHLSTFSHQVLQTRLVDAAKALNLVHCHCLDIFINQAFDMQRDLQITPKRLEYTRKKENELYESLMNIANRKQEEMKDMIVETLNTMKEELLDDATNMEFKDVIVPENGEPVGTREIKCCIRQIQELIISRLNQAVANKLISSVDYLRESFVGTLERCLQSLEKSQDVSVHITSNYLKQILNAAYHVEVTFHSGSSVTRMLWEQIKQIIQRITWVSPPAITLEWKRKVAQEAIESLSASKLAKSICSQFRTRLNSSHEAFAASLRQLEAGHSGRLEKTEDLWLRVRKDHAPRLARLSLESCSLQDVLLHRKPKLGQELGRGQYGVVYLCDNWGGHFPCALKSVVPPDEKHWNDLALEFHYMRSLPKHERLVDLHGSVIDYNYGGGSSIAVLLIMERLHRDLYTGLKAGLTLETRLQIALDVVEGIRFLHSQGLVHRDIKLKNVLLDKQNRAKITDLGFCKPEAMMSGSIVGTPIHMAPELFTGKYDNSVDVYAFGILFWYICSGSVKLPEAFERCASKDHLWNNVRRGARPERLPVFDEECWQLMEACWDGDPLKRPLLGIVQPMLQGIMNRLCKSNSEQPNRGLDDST
Chain of CASK (human) (O14936 whole entry, looked up): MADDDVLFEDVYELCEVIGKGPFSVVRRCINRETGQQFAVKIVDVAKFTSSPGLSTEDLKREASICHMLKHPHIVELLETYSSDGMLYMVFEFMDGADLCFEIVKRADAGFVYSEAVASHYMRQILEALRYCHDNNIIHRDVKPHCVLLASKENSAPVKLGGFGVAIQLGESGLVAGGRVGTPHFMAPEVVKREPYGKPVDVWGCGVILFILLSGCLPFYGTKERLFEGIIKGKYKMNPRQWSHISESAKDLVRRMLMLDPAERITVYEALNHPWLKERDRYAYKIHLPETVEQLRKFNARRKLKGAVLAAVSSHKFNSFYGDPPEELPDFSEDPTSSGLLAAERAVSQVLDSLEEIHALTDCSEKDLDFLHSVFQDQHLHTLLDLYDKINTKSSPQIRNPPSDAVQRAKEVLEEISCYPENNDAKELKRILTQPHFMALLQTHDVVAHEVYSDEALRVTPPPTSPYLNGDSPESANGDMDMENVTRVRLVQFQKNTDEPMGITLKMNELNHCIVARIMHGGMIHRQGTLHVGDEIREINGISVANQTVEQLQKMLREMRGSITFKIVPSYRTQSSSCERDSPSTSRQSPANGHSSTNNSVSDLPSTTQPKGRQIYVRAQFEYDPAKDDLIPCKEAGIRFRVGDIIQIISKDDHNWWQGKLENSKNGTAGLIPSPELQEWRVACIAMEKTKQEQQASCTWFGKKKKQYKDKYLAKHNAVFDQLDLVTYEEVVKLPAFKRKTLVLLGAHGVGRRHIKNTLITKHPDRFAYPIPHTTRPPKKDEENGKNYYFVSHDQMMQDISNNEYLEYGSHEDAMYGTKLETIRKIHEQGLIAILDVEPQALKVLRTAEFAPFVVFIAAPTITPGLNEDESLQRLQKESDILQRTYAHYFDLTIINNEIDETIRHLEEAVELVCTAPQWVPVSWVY
Chain of PIK3CA (human), P42336 [I800L] (P42336 whole entry I800L, looked up): as the sequence (P42336 whole entry E542K, looked up) above, with K542E, I800L counted along it
Chain of PIK3CA (human), P42336 [C420R] (P42336 whole entry C420R, looked up): as the sequence (P42336 whole entry E542K, looked up) above, with C420R, K542E counted along it
Chain of PIK3CA (human), P42336 [E545A] (P42336 whole entry E545A, looked up): as the sequence (P42336 whole entry E542K, looked up) above, with K542E, E545A counted along it

## CCN1CCN(Cc2ccc(NC(=O)c3ccc(C)c(Oc4ccnc5[nH]ccc45)c3)cc2C(F)(F)F)CC1
[1]
  kinase still bound, per cent of control: 0.05%
FES (human)
  IC50: 298 µM

## CCOc1cc(N2CCC(N3CCCCC3)CC2)ccc1Nc1nc(Nc2ccccc2S(=O)(=O)C(C)C)c2cn[nH]c2n1
HIPK3 (human)
  kinase still bound, per cent of control: 79%
[2]
  kinase still bound, per cent of control: 100%
NEK3 (human)
  kinase still bound, per cent of control: 76%
DYRK1A (human)
  kinase still bound, per cent of control: 63%
CDKL1 (human)
  kinase still bound, per cent of control: 100%
PRKCI (human)
  kinase still bound, per cent of control: 100%
CASK (human)
  kinase still bound, per cent of control: 100%
EPHB6 (human)
  kinase still bound, per cent of control: 71%
HUNK (human)
  kinase still bound, per cent of control: 100%
MAP2K7 (human)
  kinase still bound, per cent of control: 78%
MAP3K2 (human)
  kinase still bound, per cent of control: 28%
NIM1 (human)
  kinase still bound, per cent of control: 100%
IRAK4 (human)
  kinase still bound, per cent of control: 87%
TBK1 (human)
  kinase still bound, per cent of control: 100%
MATK (human)
  kinase still bound, per cent of control: 100%
PIP5K1C (human)
  kinase still bound, per cent of control: 82%
GRK1 (human)
  kinase still bound, per cent of control: 98%
[3]
  kinase still bound, per cent of control: 100%
[4]
  kinase still bound, per cent of control: 67%
GRK4 (human)
  kinase still bound, per cent of control: 92%
[5]
  kinase still bound, per cent of control: 73%
TRPM6 (human)
  kinase still bound, per cent of control: 100%
CPK1 (P.falciparum)
  kinase still bound, per cent of control: 44%
PKN3 (M.tuberculosis)
  kinase still bound, per cent of control: 75%
MAP2K5 (human)
  kinase still bound, per cent of control: 55%
GRK7 (human)
  kinase still bound, per cent of control: 100%
SIK3 (human)
  kinase still bound, per cent of control: 100%
PRPF4B (human)
  kinase still bound, per cent of control: 100%
SNRK (human)
  kinase still bound, per cent of control: 40%
NEK11 (human)
  kinase still bound, per cent of control: 100%
[6]
  kinase still bound, per cent of control: 100%
[7]
  kinase still bound, per cent of control: 100%
CSNK1A1L (human)
  kinase still bound, per cent of control: 78%
[8]
  kinase still bound, per cent of control: 100%
CDK4 CCND3 (human)
  kinase still bound, per cent of control: 100%
[9]
  kinase still bound, per cent of control: 100%
CDKL5 (human)
  kinase still bound, per cent of control: 100%
MARK2 (human)
  kinase still bound, per cent of control: 86%
DSTYK (human)
  kinase still bound, per cent of control: 2.8%
[10]
  kinase still bound, per cent of control: 4.8%
FES (human)
  IC50: 67 µM

## COc1cc(N2CCC(N3CCN(C)CC3)CC2)ccc1Nc1ncc(Cl)c(Nc2ccccc2S(=O)(=O)C(C)C)n1
[1]
  kinase still bound, per cent of control: 0.45%

## CCN1CCN(Cc2ccc(NC(=O)c3ccc(C)c(/C=C/c4cnc(Nc5cc(N6CCNCC6)nc(C)n5)cn4)c3)cc2C(F)(F)F)CC1
HIPK3 (human)
  kinase still bound, per cent of control: 48%
[2]
  kinase still bound, per cent of control: 80%
NEK3 (human)
  kinase still bound, per cent of control: 59%
DYRK1A (human)
  kinase still bound, per cent of control: 44%
CDKL1 (human)
  kinase still bound, per cent of control: 61%
PRKCI (human)
  kinase still bound, per cent of control: 74%
CASK (human)
  kinase still bound, per cent of control: 72%
EPHB6 (human)
  kinase still bound, per cent of control: 1.6%
HUNK (human)
  kinase still bound, per cent of control: 93%
MAP2K7 (human)
  kinase still bound, per cent of control: 30%
MAP3K2 (human)
  kinase still bound, per cent of control: 0.4%
NIM1 (human)
  kinase still bound, per cent of control: 100%
IRAK4 (human)
  kinase still bound, per cent of control: 77%
TBK1 (human)
  kinase still bound, per cent of control: 96%
MATK (human)
  kinase still bound, per cent of control: 100%
PIP5K1C (human)
  kinase still bound, per cent of control: 65%
GRK1 (human)
  kinase still bound, per cent of control: 100%
[3]
  kinase still bound, per cent of control: 94%
[4]
  kinase still bound, per cent of control: 0.2%
GRK4 (human)
  kinase still bound, per cent of control: 80%
[5]
  kinase still bound, per cent of control: 20%
TRPM6 (human)
  kinase still bound, per cent of control: 67%
CPK1 (P.falciparum)
  kinase still bound, per cent of control: 0.2%
PKN3 (M.tuberculosis)
  kinase still bound, per cent of control: 100%
MAP2K5 (human)
  kinase still bound, per cent of control: 0.1%
GRK7 (human)
  kinase still bound, per cent of control: 73%
SIK3 (human)
  kinase still bound, per cent of control: 100%
PRPF4B (human)
  kinase still bound, per cent of control: 85%
SNRK (human)
  kinase still bound, per cent of control: 84%
NEK11 (human)
  kinase still bound, per cent of control: 40%
[6]
  kinase still bound, per cent of control: 33%
[7]
  kinase still bound, per cent of control: 94%
CSNK1A1L (human)
  kinase still bound, per cent of control: 99%
[8]
  kinase still bound, per cent of control: 73%
CDK4 CCND3 (human)
  kinase still bound, per cent of control: 64%
[9]
  kinase still bound, per cent of control: 100%
CDKL5 (human)
  kinase still bound, per cent of control: 13%
MARK2 (human)
  kinase still bound, per cent of control: 100%
DSTYK (human)
  kinase still bound, per cent of control: 69%
[10]
  kinase still bound, per cent of control: 75%
FES (human)
  IC50: 224 µM
